What is called solubility is how much of the substance goes into solution per volume. A low value points to a poorly soluble substance. For orientation: inhibition means the percentage by which the read-out fell short of the control. A high value points to a response far below the control.

Values after ≈ are worked out from the molar mass of the structure shown.

Data set [1] can be described thus: Aqueous solubility and solution stability. The data set is classed as physicochemical.
Another data set deals with Adenovirus. The data set can be described thus: microbe, parasite or virus in culture. The data set is classed as cell-based, Adenovirus (patient isolate).

Consider `Nc1ccc2oc(=O)ccc2c1` [6-ABP, 6-amino-1,2-benzopyrone], for which the “solution stability” value in data set [1] (10-12 mM solution, pH 7.2-7.9, room temperature, in the dark) is “stable for months at room temperature”. Besides, the solubility in data set [1] (aqueous media, pH 7.2-7.9) was 10 to 12 mM (≈ 1610 to 1930 µg/mL). Further, the degraded in data set [1] (aqueous solution, 10-12 mM solution, months at room temperature, in the dark, read-out: decomposition of solution) is less than 0.1%. Further, in the data set with Adenovirus (1 mM 6-ABP, 24 hours before infection), the “Virus Titer +6-ABP (Adenovirus)” value is 1 × 10^2 TCID50. In the data set on Adenovirus (6-ABP treatment), the “effect on Adenovirus growth” value is “no effect”. In the data set on Adenovirus (unidentified adenovirus, 1 mM 6-ABP, 24 hours before infection), this compound registered an inhibition at 1000 µM of 0%.

For the origin of these results see patent US5583155A, “6-amino-1,2-benzopyrones useful for treatment of viral diseases” (Octamer, Inc., priority 1994, dated 1996).
